We go through 79 molecules from the METLIN SMRT retention time set (Domingo-Almenara et al. 2019).

Molecules are shown by their SMILES.

A short description of this data set: gradient 5% acetonitrile 3 min, to 50% in 2 min, to 85% in 15 min, held 3 min, 100 µL/min. The following applies: column: Zorbax Extend-C18 2.1 x 50 mm; eluents: water / acetonitrile, 0.1% formic acid. In short, it runs like this:
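The mobile phases were water and acetonitrile, each with 0.1% formic acid, pumped at 100 μL/min through a Zorbax Extend-C18 column (2.1 × 50 mm, 1.8 μm). Pure standards were injected as mixtures of ~100 molecules and detected by a quadrupole time-of-flight mass spectrometer in positive and negative ionization mode. Retention time came from computationally picked adduct peaks, each inspected by hand.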
With `Cn1cc2c3c(cccc31)CN(C(=O)Nc1ccccc1C(F)(F)F)CC2`, the RP-LC retention time was 978 s. `COc1ccc2c(c1)C1(CCN(C(=O)Cc3ccccc3C)C1)C(=O)N2C` (centres undefined) came in with an RP-LC retention time of 826 s.

Molecule `COc1ccc(CNC(=O)Cn2c(=O)c3c(C(=O)N4CCCCC4)cc(C)nc3n(C)c2=O)cc1` showed an RP-LC retention time of 761 s. As to `O=C(NCCc1cccs1)c1cccc2[nH]cc(CN3CCOCC3)c12`, the RP-LC retention time worked out at 592 s.

Consider `O=C(Cc1c(F)cccc1Cl)NCC(=O)N1CCN(c2ccccn2)CC1`, for which the RP-LC retention time is 605 s. In turn, `Cc1ccc(C(=O)Nc2cnc(N3CCCCC3)nc2)s1` returned an RP-LC retention time of 822 s. For `Cc1nc(-c2ccccn2)cc2nn(CC(=O)NCCC(C)C)c(=O)n12`, the RP-LC retention time was determined as 713 s. In turn, `CCCC(NC(=O)c1ccc2c(c1)OCO2)C(=O)Nc1nc2ccccc2[nH]1` (centres undefined) yielded an RP-LC retention time of 670 s.

The molecule `CCc1nc(-c2csc(S(=O)(=O)N3CCCC(C(=O)NCc4ccccc4Cl)C3)c2)no1` (centres undefined) had an RP-LC retention time of 1050 s. The molecule `Cc1csc(-c2cc(S(=O)(=O)N(Cc3cccs3)C3CCCC3)c(C)s2)n1` had an RP-LC retention time of 1320 s. Regarding `CCC(=O)Nc1ccc2c(c1)CN(C(=O)c1cccc(Cl)c1)C(C(=O)N1CCCC1)C2` (centres undefined), the RP-LC retention time was determined as 1070 s. Consider `CN(C)S(=O)(=O)c1ccc(C(=O)N2Cc3nn(C(C)(C)C)c(-n4cccc4)c3C2)cc1`, for which the RP-LC retention time was 888 s. The same measure for `CCc1ccc(NC(=O)N2CCC3(CC2)NC(=O)c2ccc(Cl)cc2N3CC)cc1`: 968 s; for `COc1ccc(NC(=O)N2C[C@@H](F)C[C@H]2C(=O)N2CCc3ccccc3C2)c(OC)c1`: 790 s. As to `O=C(c1csc(-c2ccc(N3CCCC3)nc2)n1)N1CCN(c2ccccn2)CC1`, the RP-LC retention time amounted to 566 s. For `O=C(Cn1c(=O)c2cccn2c2ccccc21)NCCCN1CCCC1`, the RP-LC retention time is 593 s. For `Nc1nc(N2CCN(c3ccccn3)CC2)ncc1C(=O)NCc1ccccc1`, the RP-LC retention time is 592 s.

Regarding `CCOc1ccccc1NC(=O)CN1CCN(c2nccn2-c2ccc(C)cc2)CC1`, the RP-LC retention time came out at 612 s. The molecule `Cc1[nH]c(C(=O)N2CCCC(C(=O)NCCN3CCCCCC3)C2)c(C)c1C(=O)OC(C)C` (centres undefined) returned an RP-LC retention time of 654 s.

Consider `O=C(NC1CCCC1)C1CCN(C(=O)c2ncn3c2COC(c2ccc(Cl)cc2)C3)CC1` (centres undefined), for which the RP-LC retention time turned out to be 780 s. The result for `CCc1ccccc1NC(=O)CSc1nccc(N2CCN(c3cc(C)ccc3C)CC2)n1` reads 1060 s; that for `CNC(=O)c1cc(C)nc2ccc(C(C)C)cc12`, 596 s; that for `O=C(NCCN1CCOCC1)c1cccc(Nc2c(-c3ccc(Cl)cc3)nc3cnccn23)c1`, 599 s. The molecule `Cc1cc(C)n(-c2cc(NCCNC(=O)c3c[nH]c4ccccc34)nc(C)n2)n1` had an RP-LC retention time of 630 s.

`COc1ccc(CCN2C(=O)CC(Nc3ccc(N4CCOCC4)cc3)C2=O)cc1OC` (centres undefined) yielded an RP-LC retention time of 583 s. On to `COc1ccc(C(O)CN2CCN(c3cccc(C)c3)CC2)cc1OC` (centres undefined), for which the RP-LC retention time came to 653 s. The result for `COc1ccc(-c2cc3c(=O)n(Cc4noc(CN5CCCC(C)C5)n4)ccn3n2)cc1` (centres undefined) reads 675 s; that for `CCCn1cc(C(=O)N2CCCC2)c2nn(-c3ccccc3)c(=O)c-2c1`, 664 s. With `CC(C)Oc1ccc(CNC(=O)C2CCN(c3cnc4nccnc4c3)CC2)cc1`, the RP-LC retention time was 683 s. The same measure for `O=C(NCc1c(F)cccc1F)C(=O)Nc1ccccc1Cl`: 971 s. The result for `CCc1ccc(CN2C[C@@H]3C(=O)N(CCOC)C(=O)[C@@H]3C2)cc1` reads 631 s; that for `CCN1CCN(c2cc(C(=O)O)c3cc(NC(=O)c4ccc(Br)cc4)ccc3n2)CC1`, 610 s. `Cn1nc(C2CCCN2C(=O)C2(c3ccccc3)CC2)n(Cc2ccccc2)c1=O` (centres undefined): the RP-LC retention time is 830 s.

Turning to `O=C(NCc1ccccc1F)C1=C2CCCN2c2ccccc2S1(=O)=O`, the RP-LC retention time worked out at 818 s.

As for `COc1ccc(NC(=O)c2cnc3c(c2)c(=O)n(C)c(=O)n3-c2ccccc2)cc1Cl`, the RP-LC retention time turned out to be 916 s. On to `CN(C(=O)c1cc2c(=O)oc3ccccc3c2n1C)c1cccc(Cl)c1`, for which the RP-LC retention time came out at 933 s. With `O=C(COc1cccc(Cl)c1)Nc1nc(-c2ccc(Br)cc2)cs1`, the RP-LC retention time came out at 1260 s. The same measure for `CCC(CN1CCOCC1)NC(=O)C1CCN(c2ccc(-c3cccs3)nn2)CC1` (centres undefined): 571 s; for `O=C(N1CCC(NS(=O)(=O)Cc2ccccc2)CC1)N1C[C@H]2C[C@H](C1)[C@H]1CCCC(=O)N1C2`: 649 s. The molecule `Cc1cccc(Nc2ccc(N3CCN(C(=O)c4ccc(Br)o4)CC3)nn2)n1` yielded an RP-LC retention time of 578 s. `COc1cc2ncc(C(=O)c3ccc(C)c(C)c3)c(N3CCN(C)CC3)c2cc1OC` displayed an RP-LC retention time of 570 s. `CNC(=O)N1CCc2nn(Cc3ccccc3)c(=O)n2CC1`: the RP-LC retention time stood at 614 s.

Molecule `CC(C)N1C(=O)Cc2ccccc2C1C(=O)NCc1cccs1` (centres undefined) registered an RP-LC retention time of 750 s. The molecule `Cc1sc2ccn(C)c(=O)c2c1C(=O)NCc1cccc(Br)c1` came in with an RP-LC retention time of 834 s. Molecule `CS(=O)(=O)N1CCC(OC2CCN(C(=O)Nc3cccc(C(F)(F)F)c3)CC2)CC1` returned an RP-LC retention time of 846 s. `CCN(CC)C(=O)c1ccc2c(c1)N(CC(=O)NCCOC)C(=O)CO2` had an RP-LC retention time of 624 s. `CCOc1cccc(-c2noc(Cn3ccnc3CC)n2)c1` returned an RP-LC retention time of 668 s.

In turn, `CCCN1CCN(C(=O)C2CCN(S(=O)(=O)c3ccc4c(c3)sc(=O)n4CC)CC2)CC1` showed an RP-LC retention time of 623 s. The result for `COc1ccc(-c2nc3nc(C)cc(C)n3c2Nc2ccccc2C)cc1` reads 742 s. `Cn1cc(-c2nc(C(=O)N3CCc4ccccc43)cs2)c2cccnc21` gave an RP-LC retention time of 1010 s.

Molecule `Cc1ccc(-c2csc(NC(=O)CN3CCN(Cc4ccc5c(c4)OCO5)CC3)n2)cc1` yielded an RP-LC retention time of 737 s. `O=c1c(=O)n(-c2ccccc2)ccn1Cc1nc(-c2ccc(F)c(Cl)c2)no1` displayed an RP-LC retention time of 894 s. `Cc1ccc2c(C(=O)NCCc3cccs3)cc(NC(=O)C3CC3)cc2n1`: the RP-LC retention time amounted to 633 s. The same measure for `COc1ccccc1CCC(=O)N1CCc2cc(-c3ccno3)ccc21`: 1040 s; for `CC(C)COC(=O)c1ccc(NC(=O)C2C3CCC(C3)C2C(=O)O)cc1` (centres undefined): 901 s. With `COCCC(=O)N1CCCn2cc(-c3cccc(C#N)c3)nc21`, the RP-LC retention time is 639 s.

As to `CC[C@@H](Nc1c(Nc2cccc(C(=O)N(C)C)c2O)c(=O)c1=O)c1cc(C(C)C)co1`, the RP-LC retention time was determined as 772 s. As to `Cc1ccc(NC(=O)NC2CCN(c3ccccc3)C2=O)cc1F` (centres undefined), the RP-LC retention time stood at 855 s.

`C=CCNC(=O)Nc1nc(CSC)cs1` displayed an RP-LC retention time of 653 s. The molecule `CCOC(=O)c1c(C)[nH]c(C(=O)N2CCCC(C(=O)NCCc3ccco3)C2)c1C` (centres undefined) showed an RP-LC retention time of 781 s. The same measure for `CC(C)OCCCNC(=O)C(C)n1c(=O)c(C(F)(F)F)nc2ccccc21` (centres undefined): 972 s.

As for `COc1ccccc1-c1nc(C2CCN(C(=O)c3cc4ccccc4[nH]3)CC2)no1`, the RP-LC retention time amounted to 930 s. `O=C(Cn1c(=O)oc2ccccc21)N1CCC(Oc2nc3c(Cl)cccc3s2)CC1` displayed an RP-LC retention time of 979 s. As to `O=C(Nc1ccccc1C(F)(F)F)N1CCCC(Cn2cnc3cccnc32)C1` (centres undefined), the RP-LC retention time came to 680 s. The same measure for `Cc1cc2nn(CC(=O)Nc3ccccc3)c(=O)n2c(-c2ccccc2)n1`: 769 s; for `COC(=O)c1cnc2nc(C)ccc2c1Nc1ccc(Br)cc1`: 705 s. Turning to `O=C(NC1CCS(=O)(=O)C1)c1ccc(C(=O)c2ccccc2)cc1` (centres undefined), the RP-LC retention time worked out at 675 s. On to `Cc1ccc2c(Nc3cccc(C#N)c3)c(C(=O)N3CCCCC3)cnc2n1`, for which the RP-LC retention time was found to be 598 s. On to `CCOC(=O)c1c(C)[nH]c(C)c1S(=O)(=O)NCC(=O)N1CCN(c2ccccn2)CC1`, for which the RP-LC retention time was 599 s.

In turn, `O=C(CC1CCN(C(=O)C2CCCCC2)CC1)NCCCN1CCCC1` returned an RP-LC retention time of 595 s. With `CCN1CCC(N(Cc2ccc3c(c2)OCO3)C(=O)Nc2ccc(OC)cc2)CC1`, the RP-LC retention time came out at 641 s. Take `CCc1ccc(-c2nc(C3CC(=O)N(c4ccc(OC)cc4)C3)no2)cc1` (centres undefined): the RP-LC retention time turned out to be 1090 s. Consider `Brc1ccc2nc(-c3ccccc3)c(Nc3ccc4c(c3)OCO4)n2c1`, for which the RP-LC retention time is 748 s. `CN1C2CCC1CC(OC(=O)[C@H](CO)c1ccccc1)C2` (some centres undefined) returned an RP-LC retention time of 667 s.

With `O=C(Nc1cccc2ccc(-n3ccnc3)nc12)c1ccc2c(c1)OCO2`, the RP-LC retention time stood at 620 s.

On to `CCN1C(=O)COc2ccc(-c3noc(Cc4ccc(OC)c(OC)c4)n3)cc21`, for which the RP-LC retention time was 923 s.

Molecule `CCCN1C(=O)c2c(C(=O)NCCc3ccccc3)ncn2CC1(C)C(=O)NCCC(C)C` (centres undefined) had an RP-LC retention time of 891 s. In turn, `COc1cccc(CNC(=O)C2CCCN(c3nccnc3Sc3ccccc3)C2)c1` (centres undefined) yielded an RP-LC retention time of 1100 s. With `Cc1cccc(NC(=O)Cn2c(=O)nc(N3CCC(C)CC3)c3ccccc32)c1C`, the RP-LC retention time worked out at 909 s.
